Test results published in the supplement of paper PMC10307832.

Columns and labels:
Assay in all cases: relative viability (nuclei count vs DMSO), 5 days (fraction); higher = more cells survive
[1] = compound: CC1=CC(=CC=C1)NC2=NC(=CS2)C3=CC=NC=C3 + N=C(N)NC(=N)NCCc1ccccc1 [Phenformin] (partner 250 µM)
In short: (§1)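 Nuclei were stained with Hoechst during a one-step fixation (final 0.05% Triton X-100, 1% formaldehyde, 1 ug/ml Hoechst) carried out 5 days after dosing, then counted on 4× images. The cells, lung cancer lines in 1536-well plates, had been dosed by pin tool the day after seeding with one drug alone or a fixed anchor-drug dose plus five library-drug doses (not always all listed) in √10 steps. Relative viability is the nuclei count in treated wells divided by that in vehicle wells, and each value is the median of duplicate plates.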

Masitinib + Bortezomib = compound: Cc1ccc(NC(=O)c2ccc(CN3CCN(C)CC3)cc2)cc1Nc1nc(-c2cccnc2)cs1 [Masitinib] + CC(C)C[C@H](NC(=O)[C@H](Cc1ccccc1)NC(=O)c1cnccn1)B(O)O [Bortezomib] (partner 0.002 µM)
In short: as §1

Masitinib + Lapatinib = compound: Cc1ccc(NC(=O)c2ccc(CN3CCN(C)CC3)cc2)cc1Nc1nc(-c2cccnc2)cs1 [Masitinib] + CS(=O)(=O)CCNCc1ccc(-c2ccc3ncnc(Nc4ccc(OCc5cccc(F)c5)c(Cl)c4)c3c2)o1 [Lapatinib] (partner 2 µM)
In short: as §1

[2] = compound: CC1=CC(=CC=C1)NC2=NC(=CS2)C3=CC=NC=C3 + Cc1cc(Nc2cc(N3CCN(C)CC3)nc(Sc3ccc(NC(=O)C4CC4)cc3)n2)n[nH]1 [Tozasertib] (partner 0.1 µM)
In short: as §1

| Cell Line | relative viability ([1]; first compound 0.08 µM) | relative viability ([1]; first compound 0.253 µM) | relative viability ([1]; first compound 0.8 µM) | relative viability ([1]; first compound 2.53 µM) | relative viability ([1]; first compound 8 µM) | relative viability (Masitinib + Bortezomib; first compound 0.01 µM) | relative viability (Masitinib + Bortezomib; first compound 0.03162 µM) | relative viability (Masitinib + Bortezomib; first compound 0.1 µM) | relative viability (Masitinib + Bortezomib; first compound 0.3162 µM) | relative viability (Masitinib + Bortezomib; first compound 1 µM) | relative viability (Masitinib + Lapatinib; first compound 0.01 µM) | relative viability (Masitinib + Lapatinib; first compound 0.03162 µM) | relative viability (Masitinib + Lapatinib; first compound 0.1 µM) | relative viability (Masitinib + Lapatinib; first compound 0.3162 µM) | relative viability (Masitinib + Lapatinib; first compound 1 µM) | relative viability ([2]; first compound 0.08 µM) | relative viability ([2]; first compound 0.253 µM) | relative viability ([2]; first compound 0.8 µM) | relative viability ([2]; first compound 2.53 µM) | relative viability ([2]; first compound 8 µM) |
| --- | --- | --- | --- | --- | --- | --- | --- | --- | --- | --- | --- | --- | --- | --- | --- | --- | --- | --- | --- | --- |
| HARA | 0.338 | 0.476 | 0.413 | 0.427 | 0.347 | 1.05 | 1.09 | 1.18 | 1.17 | 1.04 | 0.582 | 0.78 | 0.855 | 0.675 | 0.719 | 0.112 | 0.101 | 0.104 | 0.104 | 0.133 |
| HCC-15 | 0.424 | 0.462 | 0.483 | 0.501 | 0.438 | 0.714 | 1.09 | 0.847 | 1.21 | 1.04 | 0.561 | 0.919 | 0.677 | 0.917 | 0.852 | 0.413 | 0.443 | 0.304 | 0.385 | 0.298 |
| IA-LM | – | – | – | – | – | 0.85 | 0.975 | 0.836 | 0.681 | 1.05 | – | – | 0.891 | 0.928 | 1.07 | – | – | – | – | – |
| LCLC-103H | 0.284 | 0.308 | 0.327 | 0.309 | 0.27 | 0.821 | 1.23 | 1.02 | 0.948 | 0.994 | – | – | – | – | – | 0.529 | 0.405 | 0.427 | 0.429 | 0.388 |
| LK-2 | – | 0.365 | 0.584 | – | 0.44 | – | – | – | – | – | 1.06 | 0.836 | 1.12 | 1.06 | 0.941 | – | 0.175 | 0.173 | – | 0.184 |
| NCI-H358 | 0.371 | 0.35 | 0.353 | 0.402 | 0.387 | – | – | – | – | – | 0.465 | 0.479 | 0.492 | 0.494 | 0.421 | 0.112 | 0.116 | 0.11 | 0.118 | 0.101 |
| NCI-H441 | 0.8 | 0.782 | 0.892 | 0.823 | 0.78 | 0.777 | 0.451 | 0.658 | 0.673 | 0.448 | – | – | – | – | – | 0.617 | 0.536 | 0.527 | 0.492 | 0.484 |
| NCI-H522 | 0.682 | 0.687 | 0.654 | 0.613 | 0.655 | – | – | – | – | – | – | – | – | – | – | 0.539 | 0.54 | 0.59 | 0.504 | 0.643 |
| NCI-H1299 | – | – | – | – | – | 0.985 | 1.05 | 0.995 | 1.01 | 1 | 0.922 | 0.961 | 0.991 | 0.976 | 0.945 | – | – | – | – | – |
| NCI-H1395 | 0.402 | 0.422 | 0.46 | 0.367 | 0.407 | – | – | – | – | – | 1.37 | 1.16 | 1.39 | 0.982 | 0.81 | 0.604 | 0.782 | 0.689 | 0.669 | 0.693 |
| NCI-H1563 | 0.725 | 0.634 | 0.691 | 0.733 | 0.657 | 0.778 | 0.789 | 0.905 | 0.81 | 0.713 | 0.945 | 0.941 | 0.969 | 0.945 | 0.732 | – | – | – | – | – |
| NCI-H1623 | 0.577 | 0.585 | 0.564 | 0.513 | 0.565 | – | – | – | – | – | – | – | – | – | – | 0.393 | 0.403 | 0.377 | 0.385 | 0.363 |
| NCI-H1648 | – | – | – | – | – | – | – | – | – | – | – | – | – | – | – | 0.387 | 0.315 | 0.46 | 0.384 | 0.294 |
| NCI-H1703 | – | – | – | – | – | 0.29 | 0.246 | 0.229 | 0.269 | 0.174 | 0.764 | 0.857 | 0.436 | 0.479 | 0.256 | – | – | – | – | – |
| NCI-H1792 | 0.207 | 0.36 | 0.373 | 0.309 | 0.252 | 0.759 | 0.387 | 0.945 | 0.994 | 1.01 | 0.721 | 0.405 | 0.874 | 0.846 | 0.995 | – | – | – | – | – |
| NCI-H1793 | 0.255 | 0.293 | 0.387 | 0.408 | 0.316 | – | – | – | – | – | 0.631 | 0.633 | 0.594 | 0.456 | 0.575 | 0.298 | 0.335 | 0.27 | 0.242 | 0.21 |
| NCI-H1944 | 0.191 | 0.187 | 0.203 | 0.178 | 0.198 | – | – | – | – | – | – | 0.743 | 0.584 | 0.695 | 0.906 | 0.291 | 0.24 | 0.226 | 0.203 | 0.178 |
| NCI-H2170 | 0.396 | 0.436 | 0.431 | 0.4 | 0.397 | – | – | – | – | – | 0.269 | 0.275 | 0.267 | 0.264 | 0.262 | 0.729 | 0.71 | 0.663 | 0.793 | 0.628 |
| NCI-H2342 | 0.483 | 0.582 | 0.603 | 0.518 | 0.568 | – | – | – | – | – | – | – | – | – | – | 0.533 | 0.423 | 0.573 | 0.476 | 0.505 |
| SK-MES-1 | 0.626 | 0.565 | 0.592 | 0.656 | 0.547 | – | – | – | – | – | 0.473 | 0.426 | 0.518 | 0.386 | 0.45 | 0.708 | 0.679 | 0.722 | 0.737 | 0.718 |
| SW 900 | 0.555 | 0.446 | 0.673 | 0.461 | 0.532 | – | – | – | – | – | – | – | – | – | – | 0.533 | 0.437 | 0.476 | 0.365 | 0.299 |
